Laboratory results published in the supplement of paper PMC13380429.

Assays:
Details in all cases: 72 h
Calu-3 [1] = assay: drug sensitivity score (DSS) for viability; higher = more toxic; extreme values may be limits of the assay
U2OS [2] = assay: as above
Caco-2 [3] = assay: as above
HepG2 [4] = assay: as above
Vero E6 [5] = assay: as above
Calu-3 [6] = assay: cell viability relative to DMSO; higher = less toxic
U2OS [7] = assay: as above
Caco-2 [8] = assay: as above
HepG2 [9] = assay: as above
Vero E6 [10] = assay: as above
Calu-3 [11] = assay: relative viability EC50 (midpoint between 100% and the lowest measured viability); higher = less toxic
U2OS [12] = assay: as above
Caco-2 [13] = assay: as above
HepG2 [14] = assay: as above
Vero E6 [15] = assay: as above

| SMILES | drug sensitivity score (Calu-3 [1]) | drug sensitivity score (U2OS [2]) | drug sensitivity score (Caco-2 [3]) | drug sensitivity score (HepG2 [4]) | drug sensitivity score (Vero E6 [5]) | cell viability (Calu-3 [6]; 1 nM) | cell viability (Calu-3 [6]; 10 nM) | cell viability (Calu-3 [6]; 100 nM) | cell viability (Calu-3 [6]; 1000 nM) | cell viability (Calu-3 [6]; 10000 nM) | cell viability (U2OS [7]; 1 nM) | cell viability (U2OS [7]; 10 nM) | cell viability (U2OS [7]; 100 nM) | cell viability (U2OS [7]; 1000 nM) | cell viability (U2OS [7]; 10000 nM) | cell viability (Caco-2 [8]; 1 nM) | cell viability (Caco-2 [8]; 10 nM) | cell viability (Caco-2 [8]; 100 nM) | cell viability (Caco-2 [8]; 1000 nM) | cell viability (Caco-2 [8]; 10000 nM) | cell viability (HepG2 [9]; 1 nM) | cell viability (HepG2 [9]; 10 nM) | cell viability (HepG2 [9]; 100 nM) | cell viability (HepG2 [9]; 1000 nM) | cell viability (HepG2 [9]; 10000 nM) | cell viability (Vero E6 [10]; 1 nM) | cell viability (Vero E6 [10]; 10 nM) | cell viability (Vero E6 [10]; 100 nM) | cell viability (Vero E6 [10]; 1000 nM) | cell viability (Vero E6 [10]; 10000 nM) | relative viability EC50 (Calu-3 [11]) | relative viability EC50 (U2OS [12]) | relative viability EC50 (Caco-2 [13]) | relative viability EC50 (HepG2 [14]) | relative viability EC50 (Vero E6 [15]) |
| --- | --- | --- | --- | --- | --- | --- | --- | --- | --- | --- | --- | --- | --- | --- | --- | --- | --- | --- | --- | --- | --- | --- | --- | --- | --- | --- | --- | --- | --- | --- | --- | --- | --- | --- | --- |
| COc1ccccc1-c1c[nH]c2ncc(-c3cncc(C(=O)N(C)C)c3)cc12 [PPY-A] | 0 | 0 | 0 | 0 | 0 | 108% | 96.4% | 95.3% | 115% | 126% | 95.4% | 112% | 101% | 101% | 96.4% | 88.4% | 119% | 102% | 106% | 102% | 120% | 96.9% | 92.1% | 114% | 99.7% | 95.4% | 100% | 100% | 101% | 112% | > 10 µM | > 10 µM | > 10 µM | > 10 µM | > 10 µM |
| C[C@](N)(Cc1ccc(O)cc1)C(=O)O [metirosine] | 0 | 0 | 0 | 0 | 0 | 112% | 113% | 106% | 97.3% | 99.5% | 101% | 96% | 101% | 96% | 99.5% | 97.7% | 96.9% | 93.5% | 88.1% | 94.8% | 86.6% | 97.3% | 96.4% | 97.1% | 91.4% | 95.8% | 94.8% | 95.1% | 95.9% | 96.4% | > 10 µM | > 10 µM | > 10 µM | > 10 µM | > 10 µM |
| Cc1cc(C(=CNc2ccc(Cl)cc2)C(=O)Nc2ccc(Cl)cc2)on1 [CCMI] | 0 | 0 | 0 | 0 | 0 | 104% | 100% | 105% | 98.9% | 105% | 103% | 93.3% | 97.8% | 102% | 99.4% | 98.4% | 93% | 104% | 88% | 100% | 95.6% | 96.3% | 96.9% | 107% | 95.7% | 98.7% | 101% | 98.7% | 96.6% | 98.1% | > 10 µM | > 10 µM | > 10 µM | > 10 µM | > 10 µM |
| Cc1cc2c(OCC(CNC(C)(C)C)OC(=O)c3ccccc3)cccc2[nH]1 (stereo not given) [bopindolol] | 0 | 0 | 0 | 0 | 0 | 101% | 102% | 108% | 103% | 92% | 92.7% | 101% | 93% | 110% | 90.4% | 93.7% | 102% | 95.4% | 102% | 91.7% | 94% | 100% | 101% | 96.8% | 95.8% | 101% | 91.6% | 95.9% | 98.5% | 98.1% | > 10 µM | > 10 µM | > 10 µM | > 10 µM | > 10 µM |
| O=C1c2c(O)ccc(O)c2C(=O)c2c(NCCNCCO)ccc(NCCNCCO)c21 [mitoxantrone] | 14.6 | 14.6 | 10.7 | 21.6 | 13.9 | 104% | 98.4% | 65.1% | 46.7% | 28.9% | 95.8% | 102% | 88.7% | 30.6% | 0.7% | 93.3% | 96.5% | 86.2% | 53% | 22.3% | 93.1% | 82.4% | 53.2% | 21.8% | 1.7% | 98.8% | 96% | 66.5% | 51.4% | 13.6% | 0.15 µM | 0.514 µM | 0.565 µM | 0.11 µM | 0.35 µM |
| C[C@@H]1C(=O)O[C@H]2C[C@@]34[C@H]5C[C@@H](C(C)(C)C)[C@]36[C@@H](OC(=O)[C@@H]6O)O[C@@]4(C(=O)O5)[C@]21O [Ginkgolide A] | 0 | 0 | 0 | 0 | 0 | 104% | 103% | 96.4% | 106% | 105% | 105% | 98.4% | 102% | 100% | 104% | 101% | 97.3% | 98.2% | 93.4% | 95.6% | 101% | 88.5% | 100% | 92.6% | 94.3% | 104% | 95.1% | 98.9% | 97% | 103% | > 10 µM | > 10 µM | > 10 µM | > 10 µM | > 10 µM |
| CN1CCN(c2ncc(-c3cc(Cl)cc(Cl)c3Cl)c(N)n2)CC1 [sipatrigine] | 0 | 0 | 0 | 0.2 | 0 | 92.1% | 105% | 108% | 111% | 92.3% | 104% | 102% | 104% | 103% | 92.9% | 85.5% | 91.1% | 92.3% | 91.8% | 85.3% | 100% | 103% | 110% | 98.4% | 86.4% | 110% | 107% | 100% | 101% | 94.5% | > 10 µM | > 10 µM | > 10 µM | > 10 µM | > 10 µM |
| CC(Cc1cccc(C(F)(F)F)c1)NCCOC(=O)c1ccccc1 (stereo not given) [benfluorex] | 0 | 0 | 0 | 0 | 0 | 97.8% | 94.5% | 100% | 96.4% | 104% | 98.8% | 102% | 105% | 96.8% | 100% | 103% | 95.9% | 103% | 107% | 97.6% | 86% | 96.6% | 97.8% | 99.4% | 88.4% | 101% | 107% | 94.2% | 100% | 96.3% | > 10 µM | > 10 µM | > 10 µM | > 10 µM | > 10 µM |
| CCOC(=O)c1c(C)n(C)c2ccc(O)cc12 [mecarbinate] | 0 | 0 | 0 | 0 | 0 | 101% | 101% | 98.6% | 90.6% | 106% | 97.1% | 102% | 94.6% | 100% | 107% | 95.1% | 98.9% | 96% | 103% | 105% | 107% | 104% | 105% | 97.8% | 107% | 99.7% | 98.4% | 100% | 92.9% | 109% | > 10 µM | > 10 µM | > 10 µM | > 10 µM | > 10 µM |
| CCc1cccc(N(C)C(=N)Nc2cccc3ccccc23)c1 [aptiganel] | 1.4 | 0.1 | 0.7 | 0.1 | 0.1 | 106% | 105% | 93.2% | 92.5% | 75.1% | 101% | 107% | 98.5% | 97.5% | 88.2% | 98.1% | 95.6% | 96.4% | 94.5% | 82% | 97.6% | 97.2% | 96.1% | 96% | 85.8% | 98.2% | 100% | 103% | 96.7% | 88.8% | > 10 µM | > 10 µM | > 10 µM | > 10 µM | > 10 µM |
| CCCn1cnc2c1c(=O)n(CCCCC(C)=O)c(=O)n2C [propentofylline] | 0 | 0 | 0 | 0 | 0 | 107% | 90.8% | 99% | 94.8% | 108% | 98.4% | 98.6% | 101% | 101% | 101% | 91.1% | 97.5% | 91.5% | 102% | 106% | 98.6% | 106% | 103% | 96.4% | 104% | 92.4% | 92.4% | 92.1% | 93.3% | 106% | > 10 µM | > 10 µM | > 10 µM | > 10 µM | > 10 µM |
| CCN(CC)C(=O)N[C@H]1C=C2c3cccc4[nH]cc(c34)C[C@H]2N(C)C1 [lisuride] | 0 | 0 | 0 | 0 | 0 | 96% | 88.6% | 104% | 85% | 105% | 99.9% | 100% | 100% | 93.4% | 96% | 102% | 81.3% | 101% | 115% | 100% | 87.7% | 90% | 101% | 97.4% | 96.3% | 97.7% | 106% | 93.5% | 102% | 106% | > 10 µM | > 10 µM | > 10 µM | > 10 µM | > 10 µM |
| CNC(=O)c1ccc(-c2cnc3ncc(Cc4ccc5ncccc5c4)n3n2)cc1F [INC-280] | 0 | 0 | 0 | 0.2 | 0.3 | 101% | 103% | 99.9% | 101% | 110% | 107% | 95.7% | 99.6% | 98.1% | 102% | 97.9% | 90.7% | 96.6% | 104% | 88.4% | 89.2% | 100% | 88.8% | 111% | 82.6% | 95.7% | 98.4% | 91.5% | 96.1% | 83% | > 10 µM | > 10 µM | > 10 µM | > 10 µM | > 10 µM |
| COc1ccc(C(=O)NCc2ccc(OCCN(C)C)cc2)cc1OC [itopride] | 0 | 0 | 0 | 0 | 0 | 102% | 103% | 97.1% | 103% | 91.2% | 102% | 101% | 99.1% | 103% | 95.1% | 99% | 96.5% | 108% | 100% | 89.5% | 97.4% | 96.2% | 87.2% | 90.3% | 107% | 99.9% | 102% | 99.8% | 101% | 96.7% | > 10 µM | > 10 µM | > 10 µM | > 10 µM | > 10 µM |
| Oc1ncnc2[nH]ncc12 [allopurinol] | 0 | 0 | 0 | 0 | 0 | 100% | 98% | 90.4% | 98% | 94.1% | 100% | 103% | 102% | 99.2% | 101% | 91.5% | 97% | 104% | 89.6% | 100% | 113% | 99.6% | 99.5% | 103% | 91.7% | 107% | 104% | 92% | 101% | 93.9% | > 10 µM | > 10 µM | > 10 µM | > 10 µM | > 10 µM |
